# Reference: PubChem BioAssay (NCI)
#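 The compound was tested at five concentrations on cells cultured in 96-well plates, with a 48-hour exposure period. TGI is the concentration that stops growth completely.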
# Assays:
# Experiment in all cases: NCI anticancer screen, dose series, 48 h
# [1] = tested on: NCI-H522 lung
# [2] = tested on: SK-OV-3 ovarian
# [3] = tested on: HS 578T breast
# [4] = tested on: DU-145 prostate
# [5] = tested on: OVCAR-5 ovarian
# [6] = tested on: CCRF-CEM leukemia
# [7] = tested on: LOX IMVI melanoma
# [8] = tested on: T-47D breast
# [9] = tested on: SR leukemia
# [10] = tested on: SNB-19 CNS
SMILES,TGI [1],TGI [2],TGI [3],TGI [4],TGI [5],TGI [6],TGI [7],TGI [8],TGI [9],TGI [10]
O=c1oc2cccnc2n1CCCCN1CCN(c2ccccc2)CC1,> 100 µM,> 100 µM,> 100 µM,> 100 µM,> 100 µM,> 100 µM,> 100 µM,> 100 µM,> 100 µM,> 100 µM
O=[N+]([O-])c1cc(F)ccc1Sc1ccccc1,> 10 µM,> 10 µM,> 10 µM,> 10 µM,> 10 µM,> 10 µM,> 10 µM,> 10 µM,> 10 µM,> 10 µM
O=c1[nH]c2cc([N+](=O)[O-])c(Nc3c4ccccc4nc4ccccc34)c([N+](=O)[O-])c2[nH]1,3.63 µM,24.7 µM,> 28.9 µM,8.82 µM,7.08 µM,24.3 µM,7.02 µM,8.83 µM,4.36 µM,26.7 µM
COc1ccc(OC)c(C[P+](c2ccccc2)(c2ccccc2)c2ccccc2)c1,> 39.4 µM,11 µM,8.45 µM,> 79.4 µM,> 100 µM,> 26.8 µM,13.2 µM,> 90 µM,6.07 µM,> 75 µM
Cc1ccc(NC2=N/C(=C/c3ccco3)C(Cl)=N2)cc1,> 100 µM,> 100 µM,> 100 µM,> 100 µM,> 100 µM,> 100 µM,> 100 µM,> 100 µM,> 100 µM,> 100 µM
O=C1/C(=C/c2ccc(O)cc2)CCC1CNc1ccccc1 (stereo not given),6.95 µM,43.9 µM,57.6 µM,16.9 µM,31.6 µM,4.54 µM,22.2 µM,55.2 µM,4.22 µM,30.1 µM
COC(=O)C1CC23C=CCN4CC(C2C)C2(c5ccccc5NC12)C43 (stereo not given),> 100 µM,> 100 µM,> 100 µM,> 100 µM,> 100 µM,> 100 µM,> 100 µM,> 100 µM,> 100 µM,> 100 µM
Nn1c(Sc2nc3ccccc3c(=O)n2N)nc2ccccc2c1=O,3.57 µM,54.6 µM,> 53.7 µM,56.8 µM,40.6 µM,4.51 µM,4.25 µM,> 51.8 µM,5.1 µM,24.6 µM
COc1cccc(C23CCCC(C2)N(C)CC3OC(=O)c2ccccc2)c1OC (stereo not given),67.6 µM,97.7 µM,78.6 µM,> 100 µM,> 100 µM,25 µM,45.2 µM,81.2 µM,40.9 µM,> 100 µM
Cc1nc2cccc(F)c2c(=O)n1-c1nnc(C(F)(F)F)s1,> 10 µM,> 10 µM,> 10 µM,> 10 µM,> 10 µM,> 10 µM,> 10 µM,> 10 µM,> 10 µM,> 10 µM
O=C(O)CCSC1=NCCN1,> 100 µM,> 100 µM,> 100 µM,> 100 µM,> 100 µM,> 100 µM,> 100 µM,> 100 µM,> 100 µM,> 100 µM
CC1=NN2C(=N)/C(=C/c3ccccc3)C(=O)N=C2S1,> 100 µM,> 100 µM,> 100 µM,> 100 µM,> 100 µM,> 100 µM,> 100 µM,> 100 µM,> 100 µM,> 100 µM
COc1cc2c(c(OC)c1)C(=O)O[C@H](C)CCCC/C=C/C2,24 µM,> 100 µM,> 100 µM,27.1 µM,> 32.7 µM,> 100 µM,23 µM,> 31.6 µM,> 100 µM,> 32.5 µM
COc1cc2c(cc1O)CCN(C)[C@H]2Cc1ccc(Oc2c(O)c(OC)cc3c2C[C@H]2c4c(c(OC)c(OC)c(OC)c4-3)CCN2C)cc1,11.2 µM,10.5 µM,17.7 µM,11.5 µM,13.2 µM,9.28 µM,6.55 µM,12.2 µM,4.86 µM,12.5 µM
CCN(CCCl)c1cccc(NC(=O)c2ccc(C(=O)Nc3cccc(CN(C)C)c3)cc2)c1,0.0342 µM,4.13 µM,0.399 µM,12.2 µM,32 µM,1.22 µM,0.177 µM,0.662 µM,27.3 µM,0.887 µM
